The source made the active and inactive calls. How the calls were made is not given here.
System: MCF-7/NOD2 cells, MDP-induced IL-8 secretion
Experiment: inhibition of NOD2-driven IL-8 release, SAR follow-up, MCF-7/NOD2 cells, MDP stimulus (AID 2260)

Structure (SMILES)	IC50
Nc1nc2ccccc2n1S(=O)(=O)c1ccc([N+](=O)[O-])cc1	> 5 µM (inactive)
O=C(O)c1c(NC(=O)N2CCOCC2)sc2c1CCCC2	> 25 µM (inactive)
Nc1nc2ccccc2n1S(=O)(=O)c1ccccc1	> 5 µM (inactive)
COc1ccc(S(=O)(=O)n2c(N)nc3ccccc32)cc1	> 5 µM (inactive)

The next lines start with the values.

IC50	Structure (SMILES)
> 5 µM (inactive)	Cc1ccc(S(=O)(=O)n2c(N)nc3cc(C)c(C)cc32)cc1
> 25 µM (inactive)	Cc1ccc(S(=O)(=O)n2c(N)nc3ccccc32)cc1
